Results from patent publication US10323021B2, “Triazoles as NR2B receptor inhibitors” (Janssen Pharmaceuticals, Inc., priority 2014, dated 2019).
pIC50: −log10 of the molar value.

Experiments:
rat NR1/NR2B receptor [1] = target: T1, rat NR1/NR2B receptor (Rattus norvegicus (Rat), UniProt P35439+Q00960); test: NR2B binding assay: inhibition of specific [3H]-Ifenprodil binding to the rat NR1/NR2B receptor; conditions: for inhibition at 1 µM: 1 μM test compound, read-out: NR2B binding assay % INH @ 1 μM; for inhibition at 10 µM: 10 μM test compound, read-out: NR2B binding assay % INH @ 10 μM; for pIC50: rat brain membranes, [3H]-Ifenprodil, Hill-plot 2-parameter model
Procedure: Inhibition of Specific Binding to the Rat NR1/NR2B Receptor
Male Wistar rats (180 to 200 g) were killed by suffocation in a CO2 chamber for two minutes. Whole brains without cerebellum were removed and dissected on ice, placed into closed vials and stored at −70° C.
Membrane fractions were prepared and tested using standard techniques. At the time of the assay, 1 g of the brains was placed into 25 ml of 50 mM Tris/10 mM EDTA buffer, pH 7.1, (25 vol. per g of original tissue) and homogenized for 30 sec at 20000 rpm with an Ultraturrax T25 (Jahnke & Kunkel, IKA-Labortechnik, Staufen, Germany). The homogenate was centrifuged at 4° C. for 10 min at 48000 g (OPTIMA L-70, Beckman, Palo Alto, Calif. 94304, USA).
The supernatant was discarded and the pellet was homogenized on ice for 30 sec at 20000 rpm with an Ultraturrax and again centrifuged at 48000 g for 30 minutes at 4° C. The resulted pellet was resuspended in 25 ml of 50 mM Tris/10 mM EDTA buffer, homogenized for 30 sec with an Ultraturrax, aliquoted, frozen at −70° C. and stored until use.
After thawing on the day of the assay, a 5 ml membrane aliquot was centrifuged at 48000 g for 30 min at 4° C. The pellet was resuspended in 5 ml of 5 mM Tris/1 mM EDTA buffer, pH 7.4, homogenized for 30 sec at 20000 rpm with an Ultraturrax and centrifuged at 48000 g for 30 min at 4° C. This was repeated twice. The final pellet was homogenized in 5 ml of 5 mM Tris/1 mM EDTA buffer at 4° C. with an Ultraturrax and used for the Ifenprodil-binding assay as described in the following.
Nonspecific binding was estimated in the presence of […] CP101.606. The samples were incubated for 60 min. at 4° C.
The incubation was terminated by filtration of the membrane preparations using Filtermat B (Pharmacia, Uppsala Sweden) and a Micro Cell Harvester (Skatron, Lier, Norway). The Filtermat B had been presoaked with 1% polyethylene imine and carefully washed with 50 mM Tris/HCl-buffer pH 7.7 after the filtration to separate free and bound radioactivity.
The optimal amount of membrane preparation in the assay had been determined and optimized for each membrane preparation separately before the test.
For pipetting of the incubation mixture we routinely used the robot Biomek2000 (Fa. Beckman).
For determination of IC50 values the Hill-plot, 2-parameter-model was used.

hERG receptor = hERG receptor (Homo sapiens (Human), UniProt Q12809); test: HERGBD: inhibition of specific [3H]-Dofetilide binding to the hERG receptor; conditions: HEK hERG membranes, Hill-plot 2-parameter model
rat NR1/NR2B receptor [2] = target: T1, rat NR1/NR2B receptor; test: RRNR2BB: inhibition of specific [3H]-Ifenprodil binding to the rat NR1/NR2B receptor; conditions: rat brain membranes, Hill-plot 2-parameter model

T1 sequence (Q00960 27-1482, other chains not shown): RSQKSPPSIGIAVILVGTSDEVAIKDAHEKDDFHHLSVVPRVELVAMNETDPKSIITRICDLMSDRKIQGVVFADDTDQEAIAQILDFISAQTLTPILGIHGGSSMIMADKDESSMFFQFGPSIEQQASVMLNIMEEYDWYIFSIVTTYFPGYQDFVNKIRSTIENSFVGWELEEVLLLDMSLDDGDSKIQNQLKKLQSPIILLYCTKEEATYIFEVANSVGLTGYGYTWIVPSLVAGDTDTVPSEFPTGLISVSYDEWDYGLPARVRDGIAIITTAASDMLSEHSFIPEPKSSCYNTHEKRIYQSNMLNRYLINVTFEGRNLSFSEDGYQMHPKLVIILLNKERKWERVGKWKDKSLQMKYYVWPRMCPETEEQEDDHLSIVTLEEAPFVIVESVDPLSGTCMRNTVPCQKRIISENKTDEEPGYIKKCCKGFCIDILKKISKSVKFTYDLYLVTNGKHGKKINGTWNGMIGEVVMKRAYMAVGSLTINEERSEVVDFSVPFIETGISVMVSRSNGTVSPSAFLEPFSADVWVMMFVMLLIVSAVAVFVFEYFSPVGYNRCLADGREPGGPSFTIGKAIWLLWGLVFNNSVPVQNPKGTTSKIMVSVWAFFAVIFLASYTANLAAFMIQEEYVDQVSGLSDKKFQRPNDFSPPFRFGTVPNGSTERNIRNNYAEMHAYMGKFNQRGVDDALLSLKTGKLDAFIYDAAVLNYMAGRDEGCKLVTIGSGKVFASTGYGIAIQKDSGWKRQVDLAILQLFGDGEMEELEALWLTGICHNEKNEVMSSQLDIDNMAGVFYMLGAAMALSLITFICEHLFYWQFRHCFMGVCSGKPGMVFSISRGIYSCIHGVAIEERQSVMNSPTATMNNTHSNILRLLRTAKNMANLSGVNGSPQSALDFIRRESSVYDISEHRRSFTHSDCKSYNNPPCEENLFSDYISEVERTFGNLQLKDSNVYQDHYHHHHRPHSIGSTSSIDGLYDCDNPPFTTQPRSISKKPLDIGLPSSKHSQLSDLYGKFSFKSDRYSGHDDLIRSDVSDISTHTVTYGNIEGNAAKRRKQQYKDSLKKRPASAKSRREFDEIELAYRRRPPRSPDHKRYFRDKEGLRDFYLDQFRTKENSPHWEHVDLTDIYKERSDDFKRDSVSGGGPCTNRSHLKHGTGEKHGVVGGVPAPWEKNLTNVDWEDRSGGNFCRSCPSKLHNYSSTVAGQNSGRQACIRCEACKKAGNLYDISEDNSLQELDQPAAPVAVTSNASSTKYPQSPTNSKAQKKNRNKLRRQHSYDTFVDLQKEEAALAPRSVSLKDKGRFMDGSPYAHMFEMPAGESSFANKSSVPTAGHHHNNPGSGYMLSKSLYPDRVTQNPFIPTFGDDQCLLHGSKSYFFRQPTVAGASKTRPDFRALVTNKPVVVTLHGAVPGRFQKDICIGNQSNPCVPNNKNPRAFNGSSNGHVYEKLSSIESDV
Sequence of hERG receptor (Q12809 whole entry): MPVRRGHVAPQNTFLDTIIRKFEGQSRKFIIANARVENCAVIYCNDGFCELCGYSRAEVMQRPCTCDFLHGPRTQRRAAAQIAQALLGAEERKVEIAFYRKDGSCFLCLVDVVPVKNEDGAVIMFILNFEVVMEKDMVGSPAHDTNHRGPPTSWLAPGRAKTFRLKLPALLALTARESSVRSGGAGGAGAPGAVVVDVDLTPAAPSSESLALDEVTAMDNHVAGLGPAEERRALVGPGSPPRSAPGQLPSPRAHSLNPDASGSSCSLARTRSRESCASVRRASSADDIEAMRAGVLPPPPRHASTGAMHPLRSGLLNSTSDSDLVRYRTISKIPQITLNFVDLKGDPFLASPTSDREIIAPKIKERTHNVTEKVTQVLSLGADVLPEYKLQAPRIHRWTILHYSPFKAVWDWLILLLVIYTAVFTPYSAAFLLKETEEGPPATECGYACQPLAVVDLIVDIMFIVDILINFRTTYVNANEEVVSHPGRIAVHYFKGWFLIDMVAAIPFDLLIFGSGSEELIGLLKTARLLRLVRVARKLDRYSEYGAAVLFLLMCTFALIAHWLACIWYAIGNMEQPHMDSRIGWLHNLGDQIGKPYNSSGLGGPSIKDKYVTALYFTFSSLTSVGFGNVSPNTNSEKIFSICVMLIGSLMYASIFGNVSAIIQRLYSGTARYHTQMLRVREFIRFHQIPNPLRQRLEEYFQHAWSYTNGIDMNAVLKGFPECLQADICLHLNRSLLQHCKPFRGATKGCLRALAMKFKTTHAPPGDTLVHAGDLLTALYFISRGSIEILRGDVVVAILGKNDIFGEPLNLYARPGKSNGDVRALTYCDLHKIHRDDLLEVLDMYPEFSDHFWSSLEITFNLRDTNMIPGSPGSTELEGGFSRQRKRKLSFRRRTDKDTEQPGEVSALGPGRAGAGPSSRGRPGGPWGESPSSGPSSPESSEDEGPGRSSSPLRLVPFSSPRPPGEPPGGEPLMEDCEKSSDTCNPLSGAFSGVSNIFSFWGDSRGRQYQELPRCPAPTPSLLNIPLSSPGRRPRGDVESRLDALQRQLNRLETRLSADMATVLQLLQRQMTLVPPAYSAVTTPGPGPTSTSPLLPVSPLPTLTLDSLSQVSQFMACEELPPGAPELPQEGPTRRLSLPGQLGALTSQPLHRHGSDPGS

Row | inhibition at 1 µM (rat NR1/NR2B receptor [1]) [%] | inhibition at 10 µM (rat NR1/NR2B receptor [1]) [%] | pIC50 (rat NR1/NR2B receptor [1]) | pIC50 (rat NR1/NR2B receptor [2]) | Structure (SMILES) | pIC50 (hERG receptor)
1 | 14.5 | -2.2 | – | – | Cc1nc(C2CCC2)nn1Cc1cn(-c2ccc(Cl)cc2)nn1 [Example 22, 1-(4-Chloro-phenyl)-4-(3-cyclobutyl-5-methyl-[1,2,4]triazol-1-ylmethyl)-1H-[1,2,3]triazole] | –
2 | -1.6 | 6.8 | – | – | Cc1nc(C2CCC2)n(Cc2cn(-c3ccc(Cl)cc3)nn2)n1 [Example 21, 1-(4-Chloro-phenyl)-4-(5-cyclobutyl-3-methyl-[1,2,4]triazol-1-ylmethyl)-1H-[1,2,3]triazole] | –
3 | 3.6 | 32.6 | – | – | Clc1ccc(-n2cc(Cn3ncnc3C3CC3)nn2)cc1 [Example 16, 1-(4-Chloro-phenyl)-4-(5-cyclopropyl-[1,2,4]triazol-1-ylmethyl)-1H-[1,2,3]triazole] | –
4 | 12.4 | 31.5 | – | – | Cc1nc(C)n(Cc2cn(-c3ccc(Cl)cc3)nn2)n1 [Example 1, 1-(4-Chloro-phenyl)-4-(3,5-dimethyl-[1,2,4]triazol-1-ylmethyl)-1H-[1,2,3]triazole] | –
5 | 7.5 | 16.2 | – | – | Clc1ccc(-n2cc(Cn3cnc(C4CC4)n3)nn2)cc1 [Example 13, 1-(4-Chloro-phenyl)-4-(3-cyclopropyl-[1,2,4]triazol-1-ylmethyl)-1H-[1,2,3]triazole] | –
6 | -4.9 | – | – | – | Cc1ccc(C(=O)c2nccn2Cc2cn(-c3ccc(Cl)cc3)nn2)cc1 [Example 116, [1-[[1-(4-chlorophenyl)triazol-4-yl]methyl]imidazol-2-yl]-(p-tolyl)methanone] | –
7 | 21.6 | 2 | – | – | CC(C)c1ncn(Cc2cn(-c3ccc(Cl)cc3)nn2)n1 [Example 4, 1-(4-Chloro-phenyl)-4-(3-isopropyl-[1,2,4]triazol-1-ylmethyl)-1H-[1,2,3]triazole] | –
8 | 29.6 | -17.1 | – | – | Cc1nc(CO)nn1Cc1cn(-c2ccccc2)nn1 [Example 48, 4-(3-Hydroxymethyl-5-methyl-[1,2,4]triazol-1-ylmethyl)-1-phenyl-1H-[1,2,3]triazole] | –
9 | – | – | 6.73 | 6.73 | FCCc1nccn1Cc1cn(-c2cc(F)cc(C(F)F)c2)nn1 [Example 104, 1-(3-Difluoromethyl-5-fluoro-phenyl)-4-[2-(2-fluoro-ethyl)-imidazol-1-ylmethyl]-1H-[1,2,3]triazole] | 4.51
10 | 23.9 | 43 | – | – | CCCc1ncnn1Cc1cn(-c2ccc(Cl)cc2)nn1 [Example 2, 1-(4-Chloro-phenyl)-4-(5-propyl-[1,2,4]triazol-1-ylmethyl)-1H-[1,2,3]triazole] | –
11 | 19.9 | 12.5 | – | – | FC(F)(F)c1ncn(Cc2cn(-c3ccc(Cl)cc3)nn2)n1 [Example 17, 1-(4-Chloro-phenyl)-4-(3-trifluoromethyl-[1,2,4]triazol-1-ylmethyl)-1H-[1,2,3]triazole] | –
12 | 8.3 | 38.7 | – | – | Cc1ncnn1Cc1cn(-c2ccc(Cl)cc2)nn1 [Example 8, 1-(4-Chloro-phenyl)-4-(5-methyl-[1,2,4]triazol-1-ylmethyl)-1H-[1,2,3]triazole] | –
13 | 2.3 | 40.9 | – | – | CC(C)c1ncnn1Cc1cn(-c2ccc(Cl)cc2)nn1 [Example 7, 1-(4-Chloro-phenyl)-4-(5-isopropyl-[1,2,4]triazol-1-ylmethyl)-1H-[1,2,3]triazole] | –
14 | 9.3 | 7.4 | – | – | Cc1nc(C)n(Cc2cn(-c3ccccc3)nn2)n1 [Example 46, 4-(3,5-Dimethyl-[1,2,4]triazol-1-ylmethyl)-1-phenyl-1H-[1,2,3]triazole] | –
15 | 8.2 | 14.5 | – | – | CC(C)(C)c1ncnn1Cc1cn(-c2ccc(Cl)cc2)nn1 [Example 19, 4-(5-tert-Butyl-[1,2,4]triazol-1-ylmethyl)-1-(4-chloro-phenyl)-1H-[1,2,3]triazole] | –
16 | 1.2 | 30.1 | – | – | CCc1ncnn1Cc1cn(-c2ccc(Cl)cc2)nn1 [Example 5, 1-(4-Chloro-phenyl)-4-(5-ethyl-[1,2,4]triazol-1-ylmethyl)-1H-[1,2,3]triazole] | –

Row | inhibition at 1 µM (rat NR1/NR2B receptor [1]) [%] | inhibition at 10 µM (rat NR1/NR2B receptor [1]) [%] | pIC50 (rat NR1/NR2B receptor [1]) | pIC50 (rat NR1/NR2B receptor [2]) | Structure (SMILES) | pIC50 (hERG receptor)
17 | 11.8 | 21.6 | – | – | CCc1ncn(Cc2cn(-c3ccc(Cl)cc3)nn2)n1 [Example 6, 1-(4-Chloro-phenyl)-4-(3-ethyl-[1,2,4]triazol-1-ylmethyl)-1H-[1,2,3]triazole] | –
18 | -6 | 3.5 | – | – | Clc1ccc(-n2cc(Cn3nc(C4CC4)nc3C3CC3)nn2)cc1 [Example 10, 1-(4-Chlorophenyl)-4-(3,5-dicyclopropyl-[1,2,4]triazol-1-ylmethyl)-1-[1,2,3]triazole] | –
19 | 3.7 | 2.2 | – | – | Cc1nncn1Cc1cn(-c2ccc(Cl)cc2)nn1 [Example 31, 1-(4-Chloro-phenyl)-4-(3-methyl-[1,2,4]triazol-4-ylmethyl)-1H-[1,2,3]triazole] | –
20 | – | 49.6 | – | – | Clc1ccc(-n2cc(Cn3ncnc3C3CCCC3)nn2)cc1 [Example 14, 1-(4-Chloro-phenyl)-4-(5-cyclopentyl-[1,2,4]triazol-1-ylmethyl)-1H-[1,2,3]triazole] | –
21 | 18.3 | 4.5 | – | – | CCCc1ncn(Cc2cn(-c3ccc(Cl)cc3)nn2)n1 [Example 3, 1-(4-Chloro-phenyl)-4-(3-propyl-[1,2,4]triazol-1-ylmethyl)-1H-[1,2,3]triazole] | –
22 | 33.8 | -8.4 | – | – | Cc1nc(CO)n(Cc2cn(-c3ccccc3)nn2)n1 [Example 47, 4-(5-Hydroxymethyl-3-methyl-[1,2,4]triazol-1-ylmethyl)-1-phenyl-1H-[1,2,3]triazole] | –
23 | 6.6 | 17.9 | – | – | Cc1ncn(Cc2cn(-c3ccc(Cl)cc3)nn2)n1 [Example 9, 1-(4-Chloro-phenyl)-4-(3-methyl-[1,2,4]triazol-1-ylmethyl)-1H-[1,2,3]triazole] | –
24 | 6.4 | 22.2 | – | – | Clc1ccc(-n2cc(Cn3cnc(C4CCCC4)n3)nn2)cc1 [Example 15] | –
25 | -0.66 | 11 | – | – | Clc1ccc(-n2cc(Cn3cnc(C4CCC4)n3)nn2)cc1 [Example 12, 1-(4-Chloro-phenyl)-4-(3-cyclobutyl-[1,2,4]triazol-1-ylmethyl)-1H-[1,2,3]triazole] | –
26 | 12.7 | 53.2 | – | – | CC(C)(C)c1nccn1Cc1cn(-c2ccc(Cl)cc2)nn1 [Example 30, 4-(2-tert-Butyl-imidazol-1-ylmethyl)-1-(4-chloro-phenyl)-1H-[1,2,3]triazole] | –
27 | – | – | 6.58 | 6.58 | OCCc1nccn1Cc1cn(-c2ccc(S(F)(F)(F)(F)F)cc2)nn1 [Example 118, 2-(1-((1-(4-(pentafluoro-l6-sulfanyl)phenyl)-1H-1,2,3-triazol-4-yl)methyl)-1H-imidazol-2-yl)ethan-1-ol] | –
28 | – | – | – | – | Cc1nccn1Cc1cn(-c2ccc(F)c(C(C)(F)F)c2)nn1 [Example 105, 1-[3-(1,1-Difluoro-ethyl)-4-fluoro-phenyl]-4-(2-methyl-imidazol-1-ylmethyl)-1H-[1,2,3]triazole] | 4.64
29 | 8.7 | 41.5 | – | – | Clc1ccc(-n2cc(Cn3ncnc3C3CCC3)nn2)cc1 [Example 11, 1-(4-Chloro-phenyl)-4-(5-cyclobutyl-[1,2,4]triazol-1-ylmethyl)-1H-[1,2,3]triazole] | –
30 | 27 | 15.3 | – | – | CC(C)(C)c1ncn(Cc2cn(-c3ccc(Cl)cc3)nn2)n1 [Example 20, 4-(3-tert-Butyl-[1,2,4]triazol-1-ylmethyl)-1-(4-chloro-phenyl)-1H-[1,2,3]triazole] | –
31 | 28.7 | 51.4 | – | – | Clc1ccc(-n2cc(Cn3ccnc3Cl)nn2)cc1 [Example 26, 4-(2-Chloro-imidazol-1-ylmethyl)-1-(4-chloro-phenyl)-1H-[1,2,3]triazole] | –
